Measured values reported in ChEMBL document CHEMBL5244272 (Eur J Med Chem, 2021).
≈ marks a conversion by molar mass, not a printed value.

How the values were obtained:
Plasmodium falciparum [1] = experiment: Potency index, ratio of chloroquine IC50 to test compound IC50 for Plasmodium falciparum INDO; type: functional
Plasmodium falciparum [2] = experiment: Antimalarial activity against Plasmodium falciparum INDO; type: functional, organism-based
[3] = Selectivity index, ratio of IC50 for HEK293 cells to IC50 for Plasmodium falciparum INDO; type: toxicity; conditions: human, read-out: Ratio IC50
[4] = Cytotoxicity against HEK293 cells; type: toxicity, cell-based; conditions: human
Plasmodium yoelii [5] = experiment: Antimalarial activity against multidrug resistant Plasmodium yoelii infected in swiss mouse assessed as reduction in parasitaemia at 48 mg/kg, po measured on day 4; type: functional; parameters: scale not given: the % may be the effect or the level left; conditions: time 4 day
Plasmodium yoelii [6] = experiment: Antimalarial activity against multidrug resistant Plasmodium yoelii infected in swiss mouse assessed as increase in survival at 48 mg/kg, po after 28 days; type: functional; conditions: time 28 day
Plasmodium yoelii [7] = experiment: Antimalarial activity against multidrug resistant Plasmodium yoelii infected in swiss mouse assessed as reduction in parasitaemia at 96 mg/kg, po; type: functional; parameters: scale not given: the % may be the effect or the level left
Plasmodium berghei [8] = experiment: Antimalarial activity against Plasmodium berghei ANKA infected in mouse at 30 mg/kg; type: functional
Plasmodium falciparum [9] = experiment: Antimalarial activity against Plasmodium falciparum 3D7; type: functional, organism-based
Cytomegalovirus = experiment: Antiviral activity against HCMV; type: functional, organism-based; conditions: Human betaherpesvirus 5
Plasmodium falciparum [10] = experiment: Potency index, ratio of artemisinin IC50 to test compound IC50 for Plasmodium falciparum HB3; type: functional
Plasmodium falciparum [11] = experiment: Potency index, ratio of artemisinin IC50 to test compound IC50 for Plasmodium falciparum K1; type: functional
Plasmodium falciparum [12] = experiment: Antimalarial activity against chloroquine resistant Plasmodium falciparum; type: functional, organism-based
Plasmodium falciparum [13] = experiment: Antimalarial activity against chloroquine sensitive Plasmodium falciparum FCR-3; type: functional, organism-based
[14] = Half life in human; type: ADME
Plasmodium falciparum [15] = experiment: Antimalarial activity against Plasmodium falciparum SGE2; type: functional, organism-based
Plasmodium berghei [16] = experiment: Antimalarial activity against Plasmodium berghei N strain infected in mouse at 30 mg/kg, ip administered once daily for 4 days; type: functional; conditions: time 4 day
Plasmodium falciparum [17] = experiment: Antimalarial activity against chloroquine-sensitive Plasmodium falciparum NF54; type: functional, organism-based
Plasmodium falciparum [18] = experiment: Antimalarial activity against Plasmodium falciparum D6; type: functional, organism-based
Plasmodium falciparum [19] = experiment: Antimalarial activity against Plasmodium falciparum Dd2; type: functional, organism-based
Plasmodium falciparum [20] = experiment: Antimalarial activity against chloroquine-sensitive Plasmodium falciparum HB3; type: functional, organism-based
Plasmodium berghei [21] = experiment: Antimalarial activity against Plasmodium berghei infected in sc dosed mouse; type: functional; conditions: Plasmodium berghei
Plasmodium falciparum [22] = experiment: Antimalarial activity against Plasmodium falciparum HB3; type: functional, organism-based
Plasmodium falciparum [23] = experiment: Antimalarial activity against Plasmodium falciparum K1; type: functional, organism-based; conditions: read-out: EC50
Plasmodium yoelii [24] = experiment: Antimalarial activity against multidrug resistant Plasmodium yoelii infected in swiss mouse assessed as increase in survival at 96 mg/kg, po after 28 days; type: functional; conditions: time 28 day
Plasmodium yoelii [25] = experiment: Antimalarial activity against multidrug resistant Plasmodium yoelii infected in swiss mouse assessed as reduction in parasitaemia at 96 mg/kg, po measured on day 4; type: functional; parameters: scale not given: the % may be the effect or the level left; conditions: time 4 day
Plasmodium falciparum [26] = experiment: Antimalarial activity against Plasmodium falciparum RKL2; type: functional, organism-based
Plasmodium falciparum [27] = experiment: Antimalarial activity against Plasmodium falciparum W2; type: functional, organism-based
Plasmodium berghei [28] = experiment: Antimalarial activity against Plasmodium berghei infected in Swiss mouse at 2 mg/kg/day, po; type: functional

Question: Which “Ratio IC50” value (Plasmodium falciparum [1]) does the source give for `C=C(c1ccc2c(c1)CCCC2)C1COC2(CCCCC2)OO1` (stereo not given) here?
Answer: The value was 11.

Question: What about the IC50 (Plasmodium falciparum [2]) of the same molecule?
Answer: Its IC50 is 51 nM.

Question: And the selectivity ratio [3]?
Answer: The selectivity ratio was 589.

Question: And the CC50 [4]?
Answer: Its CC50 is 30100 nM.

Question: Which results are given for `C=C(c1ccc(-c2ccccc2)cc1)C1COC2(CCC(Nc3ccccc3)CC2)OO1` (stereo not given)?
Answer: Activity (Plasmodium yoelii [5]): 100%; Activity (Plasmodium yoelii [6]): 60%; Activity (Plasmodium yoelii [7]): 100%

Question: Which results are given for `FC1CCN(CCOc2ccc(C3CCC4(CC3)OOC3(OO4)C4CC5CC(C4)CC3C5)cc2)CC1` (stereo not given)?
Answer: Activity (Plasmodium berghei [8]): 99.65%; IC50 (Plasmodium falciparum [9]): 5.1 nM

Question: What does the source list for `C[C@H]1[C@H](OC(=O)CCC(=O)OCCOC(=O)CC(=O)OCCOC(=O)CCC(=O)O[C@@H]2O[C@@H]3O[C@]4(C)CC[C@H]5[C@H](C)CC[C@@H]([C@H]2C)[C@@]35OO4)O[C@@H]2O[C@]3(C)CC[C@H]4[C@H](C)CC[C@@H]1[C@@]24OO3`?
Answer: EC50 (Cytomegalovirus): 0.57 nM; EC50 (Plasmodium falciparum [9]; read-out: EC50): 1.4 nM

Question: Which “Ratio IC50” value (Plasmodium falciparum [10]) does the source give for `COP(=O)(OCC[C@H]1O[C@@H]2O[C@]3(C)CC[C@H]4[C@H](C)CC[C@@H]([C@H]1C)[C@@]24OO3)OCC[C@H]1O[C@@H]2O[C@]3(C)CC[C@H]4[C@H](C)CC[C@@H]([C@H]1C)[C@@]24OO3` here?
Answer: Its value is >50.

Question: And the “Ratio IC50” value (Plasmodium falciparum [11])?
Answer: Its value is >50.

Question: With `C[C@@H]1CC[C@H]2[C@@H](C)C(=O)O[C@@H]3O[C@@]4(C)CC[C@@H]1[C@]32OO4` [ARTEMISININ] as the molecule, how does the IC50 (Plasmodium falciparum [12]) read?
Answer: The IC50 was 0.001 mg/cm3.

Question: What about the IC50 (Plasmodium falciparum [13]) of the same molecule?
Answer: The IC50 was 1.4 nM.

Question: What about the half-life [14] of the same molecule?
Answer: The half-life was 2 h.

Question: What about the IC50 (Plasmodium falciparum [15]) of the same molecule?
Answer: Its IC50 is 9 nM.

Question: And the Activity (Plasmodium berghei [16])?
Answer: The Activity was 74.5%.

Question: And the IC50 (Plasmodium falciparum [17])?
Answer: Its IC50 is 18.4 nM.

Question: What about the IC50 (Plasmodium falciparum [18]) of the same molecule?
Answer: The IC50 was 55 nM.

Question: What about the IC50 (Plasmodium falciparum [19]) of the same molecule?
Answer: The IC50 was 13 nM.

Question: And the IC50 (Plasmodium falciparum [20])?
Answer: Its IC50 is 3.04 nM.

Question: What about the ED50 (Plasmodium berghei [21]) of the same molecule?
Answer: The ED50 was 3 mg/kg.

Question: And the IC50 (Plasmodium falciparum [22])?
Answer: The IC50 was 7 nM.

Question: What about the EC50 (Plasmodium falciparum [23]) of the same molecule?
Answer: Its EC50 is 3.6 nM.

Question: For `C=C(c1ccccc1)C1COC2(OO1)C1CC3CC(C1)CC2C3` (stereo not given), which Activity (Plasmodium yoelii [24]) is on record?
Answer: Its Activity is 80%.

Question: What about the Activity (Plasmodium yoelii [25]) of the same molecule?
Answer: The Activity was 96%.

Question: With `CC1(C)OOC(c2ccccc2)(c2ccccc2)OO1` as the molecule, how does the IC50 (Plasmodium falciparum [26]) read?
Answer: Its IC50 is 3.91 µg/mL (≈ 14.3 µM).

Question: With `CC(C)(N)CNC(=O)O[C@@H]1CCC[C@]2(C1)OOC1(O2)C2CC3CC(C2)CC1C3` (stereo not given in full) as the molecule, how does the IC50 (Plasmodium falciparum [27]) read?
Answer: Its IC50 is 1.8 nM.

Question: And the Activity (Plasmodium berghei [28])?
Answer: The Activity was 100%.
